What was measured:
[1] = Hydrolysis under a relatively-high acidic- and temperature-condition; type: physicochemical; conditions: relative to the substances X and Y; pH 1.7, 100° C.
Description: Thus, we removed 2-O-α-D-glucopyranosyl-L-ascorbic acid by using this hydrolysis.
The method was as follows: The second mother liquor was adjusted to give a concentration of 25%, adjusted to pH 1.7 by the addition of hydrochloric acid, and allowed to predominantly hydrolyze 2-O-α-D-glucopyranosyl-L-ascorbic acid at 100° C. Thereafter, the resultant solution was cooled and fed to a column packed with an anion exchange resin (OH^- -form) to adsorb the substances X and Y thereon, and the column was washed with water and fed with 0.5N hydrochloric acid to obtain a solution containing the substances X and Y.

physchem = type: physicochemical; conditions: for Stability, residual percentage: 0 min, 70 uM; for remaining at 21 h, 70 µM / remaining at 0.5 h, 70 µM / remaining at 1 h, 70 µM / remaining at 0.25 h, 70 µM: aqueous solution
Description: (h) Stability: The stability of the substance X was compared with L-ascorbic acid as a control. Each specimen was adjusted to give a concentration of 70 μM and to pH 7.0 or pH 2.0, and the resultant each solution was placed in a cell for an absorption spectrophotometer. The cell was set to the absorption spectrophotometer and kept at 20° C., followed by determining at a prescribed time interval an absorbance at 265 nm with the solution of pH 7.0 and an absorbance at 243 nm with the solution of pH 2.0, and comparing the residual percentage (%) of each specimen.

Solubility in solvents = type: physicochemical
7 week-old dd mice = test: Acute toxicity test, oral; type: in vivo; conditions: up to 5 g of the specimen, a higher dose was difficult
Excerpt: A high-purity 5-O-α-D-glucopyranosyl-L-ascorbic acid, prepared by the method in Experiment 1, was orally administered to 7 week-old dd mice for acute toxicity test. As a result, no mouse died when administered with up to 5 g of the specimen, and a higher dose was difficult.

[2] = Coloring reaction / direct reducing activity; type: physicochemical
[3] = tested on: enzyme of a small intestinal membrane; test: Hydrolysis by enzyme of small intestinal membrane; type: in vitro ADME; conditions: method of Okada et al.

SMILES: O=C1O[C@H]([C@@H](O)CO)C(O)=C1O[C@H]1O[C@H](CO)[C@@H](O)[C@H](O)[C@H]1O [2-O-α-D-glucopyranosyl-L-ascorbic acid]
- Hydrolysis under relatively-high acidic- and temperature-condition [1]: more readily hydrolyzed than the substances X and Y

SMILES: O=C1O[C@H]([C@@H](O)CO)C(O)=C1O [AsA, L-ascorbic acid]
- Stability, residual percentage (physchem; pH 2): 100%
- Stability, residual percentage (physchem; pH 7): 100%
- remaining at 21 h, 70 µM (physchem; pH 2): 10%
- remaining at 0.5 h, 70 µM (physchem; pH 7): 20%
- remaining at 1 h, 70 µM (physchem; pH 7): 8%
- remaining at 21 h, 70 µM (physchem; pH 7): 2%

SMILES: O=C1O[C@H]([C@H](CO)O[C@H]2O[C@H](CO)[C@@H](O)[C@H](O)[C@H]2O)C(O)=C1O [substance X, 5-O-α-D-glucopyranosyl-L-ascorbic acid]
- Solubility in 0.1M acetic acid (Solubility in solvents; 0.1M acetic acid): readily soluble
- Solubility in 0.1N sodium hydroxide (Solubility in solvents; 0.1N sodium hydroxide): readily soluble
- Solubility in benzene (Solubility in solvents; benzene): insoluble
- Solubility in chloroform (Solubility in solvents; chloroform): insoluble
- Solubility in ethanol (Solubility in solvents; ethanol): slightly soluble
- Solubility in ether (Solubility in solvents; ether): insoluble
- Solubility in methanol (Solubility in solvents; methanol): slightly soluble
- Solubility in water (Solubility in solvents; water): readily soluble
- Stability compared with L-ascorbic acid (physchem): stabler than L-ascorbic acid
- Stability, residual percentage (physchem; pH 2): 100%
- Stability, residual percentage (physchem; pH 7): 100%
- remaining at 0.25 h, 70 µM (physchem; pH 2): 99%
- remaining at 0.5 h, 70 µM (physchem; pH 2): 98%
- remaining at 1 h, 70 µM (physchem; pH 2): 90%
- remaining at 21 h, 70 µM (physchem; pH 2): 50%
- remaining at 0.25 h, 70 µM (physchem; pH 7): 58%
- remaining at 0.5 h, 70 µM (physchem; pH 7): 35%
- remaining at 1 h, 70 µM (physchem; pH 7): 16%
- remaining at 21 h, 70 µM (physchem; pH 7): 6%
- Acute toxicity, mortality (7 week-old dd mice): no mouse died
- Reducing activity (decoloring of 2,6-dichlorophenolindophenol) [2]: exhibits a reducing activity, and decolors 2,6-dichlorophenolindophenol
- Hydrolysis by enzyme of small intestinal membrane [3]: readily hydrolyzed

SMILES: O=C1O[C@H]([C@@H](O)CO[C@H]2O[C@H](CO)[C@@H](O)[C@H](O)[C@H]2O)C(O)=C1O [substance Y, 6-O-α-D-glucopyranosyl-L-ascorbic acid, reference compound]
- Hydrolysis by enzyme of small intestinal membrane [3]: not substantially hydrolyzed

— patent US5272136A, “5-0-α-D-Glucopyranosyl-L-ascorbic acid, and its preparation and uses” (priority 1991, dated 1993)
